Common to all, as to type: cell-based
Assay [1] has as its system S1T (cell strain originated from an ATL patient). As to the kind of experiment: Growth inhibition of S1T cells, 4-day culture, MTT method. The note with it: for IC50: S1T cells, 4 days; for Selectivity to ATL cell (S1T) in words: S1T versus MOLT-4; for Selectivity index on the S1T cell (SI = IC50 for MOLT-4/IC50 for S1T): screen with S1T and MOLT-4. The procedure:
(§1) In the presence of various agents, S1T (cell strain originated from an ATL patient), MT-2 (HTLV-1 infected cell strain), and as controls, MOLT-4 (acute lymphoblastic leukemia cell strain), CEM (acute lymphoblastic leukemia cell strain), HL-60 (acute promyelocytic leukemia cell strain), and Jurkat (acute T-cell leukemia cell strain) were cultivated for 4 days, and the growth inhibitory effects of compounds on the respective cells were evaluated by the MIT method.
(§2) In the presence of various concentrations of agents, SIT (cell strain originated from an ATL patient) and as a control MOLT-4 (acute lymphoblastic leukemia cell strain) were cultivated for 4 days, and the growth inhibitory effects of the compounds on the respective cells were evaluated by the MTT method.
(In general: Tetrazolium assays rely on reduction of a dye to a coloured formazan, in cell work by metabolically active cells.)

Assay [2] relates to MOLT-4 (acute lymphoblastic leukemia cell strain). As to the kind of experiment: Growth inhibition of MOLT-4 control cells, 4-day culture, MTT method. Particulars: MOLT-4 cells, 4 days. The procedure:
as §1, §2

Assay [3] concerns MT-2 (HTLV-1 infected cell strain). As to the kind of experiment: Growth inhibition of MT-2 cells, 4-day culture. The note with it: 4 days. As for the experimental part:
(§3) In the presence of various agents, […] (cell strain originated from an ATL patient), MT-2 (HTLV-1 infected cell strain), and as controls, MOLT-4 (acute lymphoblastic leukemia cell strain), CEM (acute lymphoblastic leukemia cell strain), HL-60 (acute promyelocytic leukemia cell strain), and Jurkat (acute T-cell leukemia cell strain) were cultivated for 4 days, and the growth inhibitory effects of compounds on the respective cells were evaluated by the MIT method.

In assay [4] the test system is CEM (acute lymphoblastic leukemia cell strain). The assay is described as follows: Growth inhibition of CEM control cells, 4-day culture. The note with it: 4 days. As for the experimental part: as §3
In assay [5] the test system is HL-60 (acute promyelocytic leukemia cell strain). The assay is described as follows: Growth inhibition of HL-60 control cells, 4-day culture. The note with it: HL-60 cells, 4 days. As for the experimental part: as §3
The subject of assay [6] is Jurkat (acute T-cell leukemia cell strain). The assay is described as follows: Growth inhibition of Jurkat control cells, 4-day culture. The note with it: 4 days. As for the experimental part:
as §3

[7] abbreviates: Homo sapiens, 96 h, Table 2, MTT, mean of at least 2 experiments, read-out: IC50 (μM) S1T cell.
The mark [8] stands for this setting: Table 2, selectivity to ATL cell (IC50 for MOLT-4/IC50 for S1T).
Setting [9] is: Homo sapiens, 96 h, Table 2, MTT, mean of at least 2 experiments, read-out: IC50 (μM) MOLT-4 cell.
[10] abbreviates: Table 2, MTT, mean of at least 2 experiments, read-out: IC50 (μM) S1T cell.
Setting [11] is: Table 2, MTT, mean of at least 2 experiments, read-out: IC50 (μM) MOLT-4 cell.
Where [12] appears, read: Homo sapiens, 96 h, Table 1, concentration to inhibit cell growth by 50%, read-out: IC50 (μM) S1T.
Where [13] appears, read: Table 1, selectivity index = IC50 for MOLT-4/IC50 for S1T.
Where [14] appears, read: Homo sapiens, 96 h, Table 1, concentration to inhibit cell growth by 50%, read-out: IC50 (μM) MOLT-4.

SMILES strings stand for the structures. Like-named read-outs stand apart in the source and are kept apart here.

In general, IC50 refers to the concentration that inhibits the measured activity by half.

As for `CCC(=O)c1cc2c(cc1O)C(C)(C)CCC2(C)C` [Agent A, 5,6,7,8-tetrahydro-3-hydroxy-5,5,8,8-tetramethyl-2-naphthyl ethyl ketone], the IC50 in assay [1] (setting [7]) turned out to be 4.7 ± 1.3 µM; in assay [2] (setting [9]) it was 32.3 ± 5.4 µM. The SI in assay [1] (setting [8]) was determined as 6.9.

Consider `CC(C)C(=O)c1cc2c(cc1O)C(C)(C)CCC2(C)C` [Agent B, 5,6,7,8-tetrahydro-3-hydroxy-5,5,8,8-tetramethyl-2-naphthyl isopropyl ketone], for which the half-inhibitory concentration (IC50) amounted to 6 ± 0.7 µM in assay [1] (setting [7]) and 31.9 ± 0.2 µM in assay [2] (setting [9]). In assay [1] (setting [8]), the SI was found to be 5.3.

Take `CC(C)(C)C(=O)c1cc2c(cc1O)C(C)(C)CCC2(C)C` [Agent C, 5,6,7,8-tetrahydro-3-hydroxy-5,5,8,8-tetramethyl-2-naphthyl tert-butyl ketone]: the values for the IC50 in assay [1] (setting [7]) and in assay [2] (setting [9]) were 41.5 ± 0.8 µM and 43.2 ± 2.4 µM, respectively. The compound also yielded an SI in assay [1] (setting [8]) of 1.0.

For the compound `CC1(C)CCC(C)(C)c2cc(C(=O)c3ccccc3)c(O)cc21` [Agent D, 5,6,7,8-tetrahydro-3-hydroxy-5,5,8,8-tetramethyl-2-naphthyl phenyl ketone], the IC50 in assay [1] (setting [7]) stood at 15.2 ± 2.3 µM; in assay [2] (setting [9]) it was 28.3 ± 0.7 µM. In assay [1] (setting [8]), this compound yielded an SI of 1.9.

As for `CCC(=O)c1ccc2c(c1)C(C)(C)CCC2(C)C` [Agent E, 5,6,7,8-tetrahydro-5,5,8,8-tetramethyl-2-naphthyl ethyl ketone], the half-maximal inhibitory concentration (IC50) in assay [1] (setting [7]) is 3.3 ± 1 µM; in assay [2] (setting [9]) it was 21.5 ± 2.2 µM. Further, the SI in assay [1] (setting [8]) is recorded as 6.5.

As for `CC(C)C(=O)c1ccc2c(c1)C(C)(C)CCC2(C)C` [Agent F, 5,6,7,8-tetrahydro-5,5,8,8-tetramethyl-2-naphthyl isopropyl ketone], the IC50 in assay [1] (setting [7]) turned out to be 3.8 ± 2.1 µM; in assay [2] (setting [9]) it was 34.6 ± 1.5 µM. The compound also yielded an SI in assay [1] (setting [8]) of 9.1.

On to `CC(=S)c1cc2c(cc1O)C(C)(C)CCC2(C)C` [Agent G, 5,6,7,8-tetrahydro-3-hydroxy-5,5,8,8-tetramethyl-2-naphthyl ethanethione], for which the IC50 in assay [1] (setting [10]) amounted to 6.9 ± 2.3 µM; in assay [2] (setting [11]) it was 36.4 ± 2.1 µM. In assay [1] (setting [8]), this compound showed an SI of 5.3.

As for `CC1(C)CCC(C)(C)c2cc(C(=O)c3ccccc3)ccc21` [Agent H, 5,6,7,8-tetrahydro-5,5,8,8-tetramethyl-2-naphthyl phenyl ketone], the IC50 turned out to be 7 ± 0.9 µM in assay [1] (setting [7]) and 11.8 ± 2.2 µM in assay [2] (setting [9]). In assay [1] (setting [8]), the SI is recorded as 1.7.

As for `CON(C)C(=O)c1ccc2c(c1)C(C)(C)CCC2(C)C` [Agent J, 5,6,7,8-tetrahydro-5,5,8,8-tetramethyl-2-naphthyl-N-methoxy-N-methylamide], the IC50 in assay [1] (setting [10]) came out at 12.6 ± 2.1 µM; in assay [2] (setting [11]) it was 9.9 µM. Besides, the SI in assay [1] (setting [8]) is given as <1.0.

`CC1(C)CCC(C)(C)c2cc(C(N)=O)ccc21` [Agent K, 5,6,7,8-tetrahydro-5,5,8,8-tetramethyl-2-naphthyl amide]: the half-maximal inhibitory concentration (IC50) in assay [1] (setting [10]) came out at 37 ± 2.1 µM; in assay [2] (setting [11]) it was 39.4 ± 10.4 µM. The SI in assay [1] (setting [8]) stood at 1.1.

In the case of `CN(C)C=CC(=O)c1cc2c(cc1O)C(C)(C)CCC2(C)C` [Agent M, 5,6,7,8-tetrahydro-3-hydroxy-5,5,8,8-tetramethyl-2-naphthyl 13-(N,N-dimethylamino)vinyl ketone], the half-maximal inhibitory concentration (IC50) worked out at 2.1 ± 0.1 µM in assay [1] (setting [10]) and 9.3 ± 0.9 µM in assay [2] (setting [11]). The same compound returned an SI in assay [1] (setting [8]) of 4.4.

As for `CC1(C)CCC(C)(C)c2cc3c(=O)ccoc3cc21` [Agent N, 6,7,8,9-tetrahydro-6,6,9,9-tetramethyl-4H-naphtho[2,3-b]pyran-4-one], the IC50 in assay [1] (setting [7]) came out at 1.9 ± 0.2 µM; in assay [2] (setting [9]), 14.5 ± 1.9 µM. The same compound returned an SI in assay [1] (setting [8]) of 7.6.

Regarding `CC1(C)CCC(C)(C)c2cc3c(cc21)OCCC3=O` [Agent O, 2,3,6,7,8,9-hexahydro-6,6,9,9-tetramethyl-4H-naphtho[2,3-b]pyran-4-one], the IC50 is 6.7 ± 0.9 µM in assay [1] (setting [7]) and 13.6 ± 2.6 µM in assay [2] (setting [9]). The compound further yielded an SI in assay [1] (setting [8]) of 2.0.

For the compound `O=C([O-])c1ccccc1O.[Na+]` [Sodium salicylate, reference compound], the results for the half-inhibitory concentration (IC50) in assay [1] (setting [12]) and in assay [2] (setting [14]) were 1570 µM and 1320 µM, respectively. In addition, in assay [1], the “Selectivity to ATL cell (S1T) in words” value was “no selectivity to S1T was recognized”. In assay [1] (setting [13]), this compound displayed an SI of 0.84.

Regarding `CC1(C)CCC(C)(C)c2cc(C(=O)O)ccc21` [TMBA, reference compound], the half-inhibitory concentration (IC50) was > 100 µM in assay [1] (setting [12]) and 61.1 µM in assay [2] (setting [14]). The SI in assay [1] (setting [13]) is reported as <0.61.

Consider `CC(=O)c1ccc2c(c1)C(C)(C)CCC2(C)C` [TMN(COCH3), 5,6,7,8-tetrahydro-5,5,8,8-tetramethyl-2-naphthyl methyl ketone], for which the IC50 in assay [1] (setting [12]) was determined as 6.9 µM; in assay [2] (setting [14]), 66 µM. The “Selectivity to ATL cell (S1T) in words” value in assay [1] is on record as “higher selectivity to an ATL cell than other derivatives with analogous structures”. The compound further came in with an SI in assay [1] (setting [13]) of 9.6.

For the compound `COc1cc2c(cc1C(C)=O)C(C)(C)CCC2(C)C` [TMN(OCH3) (COCH3)], the results for the IC50 in assay [1] (setting [12]) and in assay [2] (setting [14]) were 7 µM and 11.9 µM, respectively. The “Selectivity to ATL cell (S1T) in words” value in assay [1] is “higher selectivity to an ATL cell than other derivatives with analogous structures”. For the same compound, the SI in assay [1] (setting [13]) is 1.7.

With `CC1(C)CCC(C)(C)c2ccccc21` [TMN, reference compound], the concentration for half-maximal inhibition (IC50) in assay [1] (setting [12]) and in assay [2] (setting [14]) was > 100 µM throughout.

For the compound `CC(=O)c1cc2c(cc1O)C(C)(C)CCC2(C)C` [TMNAA, 5,6,7,8-tetrahydro-3-hydroxy-5,5,8,8-tetramethyl-2-naphthyl methyl ketone], in assay [1] (FIG. 1), the “Concentration at which growth of an ATL cell is selectively inhibited in comparison to the control” value is ≥ 4 µM. The results for the IC50 in assay [1] (setting [12]) and in assay [2] (setting [14]) were 5 µM and 53.8 µM, respectively. Moreover, the “Selectivity to ATL cell (S1T) in words” value in assay [1] was “higher selectivity to an ATL cell than other derivatives with analogous structures”. In addition, the SI in assay [1] (setting [13]) is recorded as 10.8. Further, the “Selectivity index on the S1T cell (SI = IC50 for MOLT-4/IC50 for S1T)” value was ≥ 10 in assay [1] and “above 10” in assay [1] (listed as compound of the formula III). Also, the “Growth inhibitory effect on MT-2” value in assay [3] is “specific inhibitory effect solely on MT-2”. In assay [4], the “Growth inhibitory effect on CEM” value is given as “specific inhibitory effect solely on MT-2”. In addition, the “Growth inhibitory effect on HL-60” value in assay [5] is listed as “specific inhibitory effect solely on MT-2”. Moreover, the “Growth inhibitory effect on Jurkat” value in assay [6] was “specific inhibitory effect solely on MT-2”.

`CC1(C)CCC(C)(C)c2cc(C(=O)O)c(O)cc21` [TNBAA, reference compound]: the IC50 in assay [1] (setting [12]) was determined as 29.7 µM; in assay [2] (setting [14]) it was 44.4 µM. In addition, the SI in assay [1] (setting [13]) was determined as 1.49.

The record behind these values is patent publication US8765719B2, “Therapeutic drug for adult T-cell leukemia” (Kagoshima University, priority 2008, dated 2014).
